This experiment has as its target T1, Factor XIIIa (Homo sapiens, UniProt P00488).
T1 construct: from tissue; host or cells: human plasma
T1 sequence (P00488 39-732 limits assumed): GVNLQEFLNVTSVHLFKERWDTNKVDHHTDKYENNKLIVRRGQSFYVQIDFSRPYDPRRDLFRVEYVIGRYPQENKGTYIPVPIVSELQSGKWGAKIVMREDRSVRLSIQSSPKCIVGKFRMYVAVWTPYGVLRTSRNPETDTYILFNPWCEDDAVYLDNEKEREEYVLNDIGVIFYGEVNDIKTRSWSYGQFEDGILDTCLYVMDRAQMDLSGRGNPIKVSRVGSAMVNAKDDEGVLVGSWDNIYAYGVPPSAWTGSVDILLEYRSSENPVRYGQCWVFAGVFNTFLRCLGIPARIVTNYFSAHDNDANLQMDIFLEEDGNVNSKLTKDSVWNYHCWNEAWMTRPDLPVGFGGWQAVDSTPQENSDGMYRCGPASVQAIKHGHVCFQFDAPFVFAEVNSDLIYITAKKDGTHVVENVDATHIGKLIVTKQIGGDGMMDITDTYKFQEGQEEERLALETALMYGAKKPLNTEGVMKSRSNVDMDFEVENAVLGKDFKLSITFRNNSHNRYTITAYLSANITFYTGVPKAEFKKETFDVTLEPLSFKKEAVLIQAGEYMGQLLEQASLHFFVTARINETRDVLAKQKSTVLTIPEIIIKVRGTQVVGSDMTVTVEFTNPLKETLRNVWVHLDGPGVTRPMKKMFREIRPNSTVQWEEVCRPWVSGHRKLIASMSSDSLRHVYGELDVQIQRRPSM
Briefly: Factor XIIIa inhibitor assay (incorporation of 14C-putrescine into casein). It counts as biochemical. To be noted: for inhibition at 0.1 µM: @ 100 nM. On the procedure:
The Factor XIIIa inhibitor assay is based on the incorporation of ^14 C-putrescine into casein catalyzed by Factor XIIIa. The assay is carried out employing the procedure described in Methods in Enzymology, Vol. 45, Ch 15., pages 177-191 (1976) and using Factor XIII (F XIII) isolated from human plasma. The procedure is summarized briefly and schematically illustrated as follows: [drawing 9] Factor XIII assay mixtures are prepared by adding stepwise, appropriately prepared solutions of thrombin and dithiothreitol (DTT) to a mixture comprising Factor XIII at 140 μg/mL in glycerol/water and tris(hydroxymethyl)aminomethane hydrochloride (Tris.HCl). To a portion of the mixture is added calcium chloride as source of calcium ions required for enzyme activity and to the remaining mixture is added, instead of calcium ions, ethylenediaminetetraacetic acid (EDTA) which serves as a blank for background. A substrate mixture is prepared from ^14 C-putrescine and N,N-dimethylcasein. The assay tubes and control tubes are charged with the substrate mixture and incubated at 37° C. for 20 minutes. Samples are withdrawn from each tube, spotted onto a filter disk which is then immersed in ice cold trichloroacetic acid solution to precipitate the casein on the filter. The filter is then washed to remove unincorporated or free ^14 C-putrescine and after drying is counted for ^14 C-putrescine incorporated to casein from which percent activity and/or inhibition can be calculated.

[1] abbreviates: read-out: Percent inhibition (Molar concn).

Where a name gives a salt, the structure may show the parent alone.

On to `CC(=O)CSc1n(C)c(C)c(C)[n+]1C.[Cl-]` [H, CH3, CH3, CH3, CH3, Cl^-, 1,3,4,5-Tetramethyl-2[(2-oxopropyl)thio]imidazolium chloride], for which the “Percent inhibition (Molar concn)” value (@ 80 nM) came out at 95%.
Regarding `CC(=O)CSc1n(C)c(C)c(C)[n+]1C` [H, CH3, CH3, CH3, CH3, CF3 SO3^-, 1,3,4,5-tetramethyl-2[(2-oxopropyl)thio]imidazolium trifluoromethylsulfonate], under “@ 80 nM, read-out: Percent inhibition (Molar concn)”, the inhibition at 0.08 µM is 95%.
Regarding `CCCc1c(CCC)[n+](C)c(SCC(C)=O)n1C` [H, CH3, C3 H7, C3 H7, CH3, CF3 SO3^-, 1,3-Dimethyl-4,5-di(n-propyl)-2-[(2-oxopropyl)thio]imidazolium trifluoromethylsulfonate], the inhibition at 0.1 µM under setting [1] was determined as 86%.
On the same count and under the same terms, under `CCC(=O)CSc1n(C)c(C)c(C)[n+]1C` [CH3, CH3, CH3, CH3, CH3, CF3 SO3^-] stands 93%.
As for `CC(=O)CSc1ncc(C)n1C` [H, CH3, CH3, H, --, HCl, 1,5-Dimethyl-2[(2-oxopropyl)thio]imidazole], for the setting “@ 2 μM, read-out: Percent inhibition (Molar concn)”, the inhibition at 2 µM turned out to be 47%.
In the case of `CC(=O)CSc1n(C)cc[n+]1C` [H, CH3, H, H, CH3, I^-], under “@ 110 nM, read-out: Percent inhibition (Molar concn)”, the inhibition at 0.11 µM is 44%.
In the case of `CC(=O)CSc1nc(C)c(C)n1C` [H, CH3, CH3, CH3, --, HCl, 1,4,5-Trimethyl-2[(2-oxopropyl)thio]imidazole], the inhibition at 3.7 µM (@ 3.7 μM, read-out: Percent inhibition (Molar concn)) came to 76%.
As for `CC(=O)CSc1nccn1C` [H, CH3, H, H, --, --], for the setting “@ 0.15 μM, read-out: Percent inhibition (Molar concn)”, the inhibition at 0.15 µM turned out to be 40%.
Turning to `CCCc1nc(SCC(C)=O)n(C)c1C` [H, CH3, CH3, C3 H7, --, HCl], the inhibition at 4 µM (@ 4 μM, read-out: Percent inhibition (Molar concn)) is 46%.
On to `CC(=O)CSc1n(C)c(C)c[n+]1C` [H, CH3, CH3, H, CH3, CF3 SO3^-, 1,3,5-Trimethyl-2[(2-oxopropyl)thio]imidazolium trifluoromethylsulfonate], for which the inhibition at 0.1 µM under setting [1] came to 90%.
For the compound `CC(=O)CSc1n(C)cc[n+]1C` [H, CH3, H, H, CH3, Cl^-], the inhibition at 0.313 µM (@ 313 nM, read-out: Percent inhibition (Molar concn)) is 67%.
Consider `CC(=O)CSc1n(C)c(C(C)C)c(C(C)C)[n+]1C` [H, CH3, iPr, iPr, CH3, CF3 SO3^-], for which, for the setting “@ 1.0 μM, read-out: Percent inhibition (Molar concn)”, the inhibition at 1 µM was determined as 44%.
